Patent publication US12559863B2, “Macrocyclic modulators of disease associated protein misfolding and aggregation” (RESQ BIOTECH, priority 2017, dated 2026)
Where a SMILES comes first, the peptide text is derived from it.

Experiments:
Aβ42 = target: T1, Aβ42 (Homo sapiens, UniProt P05067); experiment: Transmission electron microscopy of Aβ42; assay type: biochemical; conditions: 50 μM Aβ42 with 100 μM peptide, 30-d aged
T1 construct: one of the secondary products yields a 42-amino-acid-long peptide (Aβ42); purchased Eurogentec, Belgium; host or cells: chemical synthesis
Description: For TEM analysis, the 30-d aged 50 μM CD solutions of Aβ42 (with 100 μM of the selected peptides or without) was mixed well by pipetting. 2 μL of this solution were placed in a carbon-coated film on 200-mesh copper grids (Agar Scientific, UK) for 5 min. After adsorption, grids were washed in deionized water and negatively stained by applying a 2-μl drop of freshly prepared 1% (w/v) uranyl acetate (Sigma-Aldrich, USA) in Milli-Q water for 5 min. Excess fluid was blotted off, and grids were washed in deionized water and dried in air. Images were recorded using a FEI CM20 electron microscope (FEI, USA) with a Gatan GIF200 imaging filter (Gatan, USA), equipped with a Peltier-cooled slow-scan CCD camera.

[1] = test system: glioblastoma cell line U87MG; assay type: cell-based, human; conditions: for Aβ-induced toxicity in U87MG: MTT
Description: The utilized U87MG cells (human glioblastoma-astrocytoma, epithelial-like cell line) were kind a gift from Dr. Maria Paravatou-Petsotas, Radiobiology Laboratory, Institute of Nuclear & Radiological Sciences & Technology, Energy & Safety, NCSR “Demokritos”. The utilized media/agents for U87MG cell cultures were obtained from Biochrom AG (Germany) and PAA Laboratories (USA). U87MG cells were grown in Dulbecco's modified Eagle medium (DMEM), supplemented with 10% fetal bovine serum (FBS), 2.5 mM L-glutamine, 1% penicillin/streptomycin at 37° C. and 5% CO2. For MTT cytotoxicity studies, cells were plated at a density of 2×10^4 cells per well in 96-well plates and incubated at 37° C. for 24 h to allow cells to attach. The medium was subsequently removed and cells were rendered quiescent by incubation in serum-free medium for 24 h. For cell viability measurements cells were subsequently treated with the indicated concentrations of Aβ in the presence or absence of synthetic peptides, as described in Materials and Methods.
Solutions of synthetic Aβ40 or Aβ42 (10 μM) in PBS, preincubated at 37° C. (3 d for Aβ40 solutions and 1 d for Aβ42 solutions) in the presence or absence of synthetic cyclic peptides (1:1 and 2:1 ratio of peptides:Aβ), were diluted with fresh medium and transferred into wells at a 1 μM final Aβ concentration. Cell viability was determined using the MTT assay. MTT (3-[4,5-dimethylthiazol-2-yl]-2,5-diphenyl tetrazolium bromide) was purchased from Applichem (Germany). After 24 h of exposure to Aβ solutions, 100 μL of a 0.5 mg/mL stock solution of MTT in Neurobasal-A was added to each well of primary hippocampal neurons followed by a 3 h incubation at 37° C., while 100 μL of a 1 mg/mL stock solution of MTT in DMEM complete medium was added to each well of U87MG cells followed by a 4 h incubation at 37° C. The medium was then removed and the cells were diluted in DMSO. The relative formazan concentration was measured by determination of the absorbance at 540 nm using a plate reader (Tecan, Austria). Results were expressed as the percentage of MTT reduction, assuming that the absorbance of control (untreated) cells was 100%, and represent the mean of three independent experiments with six replicate wells for each condition. Induced cell death was also qualitatively examined by phase-contrast microscopy (Carl Zeiss, Axiovert 25 CFL, Germany) using the above solutions. In each run, the effect of solutions of plain synthetic peptides and plain Aβ40 or Aβ42 was independently checked to serve as internal control.

[2] = test system: C. elegans strain CL2006 (human Aβ42 in body wall muscle cells); experiment: Paralysis assay in C. elegans CL2006 fed peptide-producing E. coli OP50; assay type: in vivo, Caenorhabditis elegans; conditions: fed throughout lifespan with E. coli OP50 producing the peptide
Text: To evaluate the protective effects of the selected cyclic peptides against Aβ aggregation and toxicity in vivo, the inventors employed two established models of AD in the nematode worm Caenorhabditis elegans. The conservation of genetic and metabolic pathways between C. elegans and mammals, in combination with its completely characterized nervous and muscular system, its easy visualization and simple manipulation, has nominated C. elegans as an excellent model for neurodegenerative diseases including AD, while chemical screening against Aβ-induced toxicity in C. elegans is increasingly used in AD drug discovery. The inventors performed initially a paralysis assay in CL2006, a strain where human Aβ42 is constitutively expressed in the body wall muscle cells of the animals and Aβ aggregate formation is accompanied by adult-onset paralysis. […] To evaluate the state of Aβ aggregation in vivo, we utilized the strain CL2331, which expresses an Aβ3-42-GFP fusion in its body wall muscle cells upon temperature up-shift.

[3] = test system: C. elegans strain CL4176 (human Aβ42, heat-inducible); experiment: Paralysis assay in C. elegans CL4176; assay type: in vivo, Caenorhabditis elegans; conditions: synthetic AβC5-34 10 μM, AβC5-116 5 μM; temperature up-shift
Description: We followed standard procedures for C. elegans strains maintenance at 16° C. The following strains were used: CL2179: dvIs179 [myo-3p::GFP::3′UTR(long)+rol-6(su1006)] (available on the world wide web at: cgc.cbs.umn.edu/strain.php?id=26134); CL2331: dvIs37 [myo-3p::GFP::Aβ(3-42)+rol-6(su1006)] (available on the world wide web at: cgc.cbs.umn.edu/strain.php?id=26135); CL4176: smg-1(cc546) I; dvIs27 [myo-3::Aβ(1-42)-let 3′UTR(pAF29); pRF4 (rol-6(su1006)] (available on the world wide web at: cgc.cbs.umn.edu/strain.php?id=7663).
For treatments with synthetic cyclic peptides, nematodes were exposed to the indicated AβC5-34 and AβC5-116 concentrations per NGM plate. Stock solutions of the two chemically synthesized pure peptides were obtained after dissolution in DMSO and stored at −20° C. The appropriate amount of compound or DMSO (control cultures) was added onto an E. coli OP50 bacterial lawn. […] Treatment and control plates were handled, scored and assayed in parallel.
Synchronized CL4176 animals (150-300 animals per condition) were transferred to NGM plates containing synthetic AβC5-34, AβC5-116 or 0.26% DMSO at 16° C. for 48 h before transgene induction via temperature up-shift to 25° C. […] Treatment and control plates were handled, scored and assayed in parallel. […] Nematodes were scored as paralyzed upon failure to move their half end-body upon prodding. […]

T1 sequence (P05067 672-713 limits assumed): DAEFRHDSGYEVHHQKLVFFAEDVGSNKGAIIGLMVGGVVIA

SMILES	Aβ42 fibrils by TEM (Aβ42)	growth-promoting effects or cytotoxicity of peptide on its own [1]	Aβ-induced toxicity in U87MG [1]	appearance of paralysis phenotype, CL2006 [2]	appearance of paralysis phenotype, CL4176 [3]
C[C@@H]1NC(=O)[C@H](CO)NC(=O)[C@H]([C@@H](C)O)NC(=O)[C@@H]2CCCN2C(=O)[C@H](CO)NC1=O [AβC5-34, cyclo-SASPT] (cyclo(ASPTS))	notably fewer, shorter and ill-developed	did not exhibit general growth-promoting effects or considerable cytotoxicity	toxicity-suppressing effects	significant delay	significant delay
C[C@@H]1NC(=O)[C@H]([C@@H](C)O)NC(=O)[C@H](CCCNC(=N)N)NC(=O)[C@H](CC(=O)O)NC(=O)[C@H](Cc2ccccc2)NC1=O [AβC5-116, cyclo-TAFDR] (cyclo(AFDRT))	notably fewer, shorter and ill-developed	did not exhibit general growth-promoting effects or considerable cytotoxicity	toxicity-suppressing effects	significant delay	significant delay
